Data on 5 molecules can be found in US20230240290A1, “USE OF (Z)-3-HEXENYL ESTERS AND METHOD FOR PROTECTING PLANTS AGAINST PESTS” (UNIVERSITAT POLITÈCNICA DE VALÈNCIA, priority 2020, published 2023).

One experiment concerns jasmonic acid pathway. Conditions: corn exposed to the volatile; Engelberth et al. 2004; cited from earlier work.
Experiment [1] concerns SI-PI-II (marker for plant proteinase inhibitors). The experiment is described as follows: Transcriptional response of SI-PI-II in tomato plants exposed to volatiles (laboratory). It counts as in vivo, Solanum lycopersicum cv. Moneymaker. Conditions: intact tomato plants exposed 24 h; filter paper, 1:10,000 ester:methanol; n=8. The method, then: (§1) Moneymaker tomato plants were used. Two weeks after seed germination, the seedlings were individually transplanted into pots (8×8×8 cm). The plants were kept at 25±2° C., with a constant relative humidity of 65%±5% and a 14:10 h (light:dark) photoperiod. Tomato plants that had not received any pesticide treatment at four weeks of age (about 20 cm tall) were used. All volatiles used were obtained from Sigma-Aldrich (St. Louis, Mo., USA). Each volatile was exposed by using a 2×2 cm piece of filter paper on which 10 μl of a solution containing the corresponding volatile at a concentration of 1:10,000 [(Z)-3-hexenyl ester:methanol] was impregnated as an emitting source of the corresponding volatile (Pérez-Hedo, M. et al. Biocontrol, 63: 203-213 (2018)).
(§2) To activate a plant, two pieces of filter paper impregnated with the volatile were placed at the bottom of a 30×30×30 cm plastic cage (BugDorm-1 Insect Tents; MegaView Science Co., Ltd, Taichung, Taiwan) into which the plant was introduced. A control treatment was carried out in which the two pieces of filter paper were impregnated with 10 μl of methanol. Eight repetitions per treatment were performed. The plants of the treatments were kept exposed to the volatile without disturbing for 24 hours in separate and isolated climatic chambers to avoid any interference from the volatiles and were kept at 25±2° C., 65±10% RH, and a 14:10 h (L:D) photoperiod. […]
(§3) The methodology followed for extracting and quantifying gene expression was described by Pérez-Hedo et al. Journal of Pest Science 3: 543-554 (2015). The primers used were forward primer: 5′-[…]-3′ (SEQ ID NO: 1) and reverse primer: 5′-[…]-3′ (SEQ ID NO: 2) for the quantification of PR1, forward primer: 5′-[…]-3′ (SEQ ID NO: 3) and reverse primer: 5′-[…]-3′ (SEQ ID NO: 4) for SI-PI-I, and forward primer: 5′-[…]-3′ (SEQ ID NO: 5) and reverse primer: 5′-[…]-3′ (SEQ ID NO: 6) for the SI-PI-II gene. […]

Experiment [2] deals with PR1 (marker gene for the salicylic acid signaling pathway). Nature of the experiment: Transcriptional response of defense gene PR1 in tomato plants exposed to volatiles (laboratory). It counts as in vivo, Solanum lycopersicum cv. Moneymaker. Conditions: intact tomato plants exposed 24 h; filter paper, 1:10,000 ester:methanol; n=8. The method, then:
as §1, §2, §3

Experiment [3] has as its system SI-PI-I (marker for plant proteinase inhibitors). Nature of the experiment: Transcriptional response of SI-PI-I in tomato plants exposed to volatiles (laboratory). It counts as in vivo, Solanum lycopersicum cv. Moneymaker. To be noted: intact tomato plants exposed 24 h; filter paper, 1:10,000 ester:methanol; n=8. The method, then: as §1, §2, §3
The test system of another experiment is Bemisia tabaci. Conditions: Pérez-Hedo et al. Biocontrol 2018; cited from earlier work.
Another experiment concerns T. absoluta. To be noted: Pérez-Hedo et al. Biocontrol 2018; cited from earlier work.
Another experiment deals with Encarsia formosa. Conditions: Pérez-Hedo et al. Biocontrol 2018; cited from earlier work.

As to `CC/C=C\CCO` [(Z)-3-hexen-1-ol], in the experiment on jasmonic acid pathway, the “Jasmonic acid pathway expression” value is listed as “overexpress”.

Turning to `CC/C=C\CC=O` [(Z)-3-hexenal], the “Jasmonic acid pathway expression” value in the experiment with jasmonic acid pathway is on record as “overexpress”.

In the case of `CC/C=C\CCOC(=O)CCC` [(Z)-3-hexenyl butanoate], the “Transcriptional response of SI-PI-II compared to the control” value in experiment [1] was “significantly overexpressed”. Moreover, the “Transcriptional response of PR1 compared to the control” value in experiment [2] was “significantly overexpressed”. Moreover, the “Transcriptional response of SI-PI-I compared to the control” value in experiment [3] is on record as “significantly overexpressed”.

Regarding `CC/C=C\CCOC(C)=O` [(Z)-3-hexenyl acetate], the “Transcriptional response of SI-PI-II compared to the control” value in experiment [1] is “significantly overexpressed”. Moreover, the “Transcriptional response of PR1 compared to the control” value in experiment [2] is recorded as “significantly overexpressed”. The “Transcriptional response of SI-PI-I compared to the control” value in experiment [3] is on record as “significantly overexpressed”. Besides, the “Jasmonic acid pathway expression” value with jasmonic acid pathway is listed as “overexpress”.

On to `COC(=O)c1ccccc1O` [methyl salicylate], for which, in the experiment with Bemisia tabaci, the “Effect of the volatile on B. tabaci” value was “repellent”. Also, the “Effect of the volatile on T. absoluta” value with T. absoluta is recorded as “no effect”. The “Effect of the volatile on E. formosa” value in the experiment on Encarsia formosa is listed as “attractive”.
